The text below walks through data of patent US7166296B2, “Pharmaceutical formulations and ligands for use therein; mimetics for UEA-1” (Sarlan, Ltd., priority 2001, dated 2007).

Values after ≈ are worked out from the molar mass of the structure shown. Non-standard residues stand in square brackets, D forms with d. Residues, ends and D or L forms follow the SMILES beside them. *: point of attachment. Galloyl = O=C(c1cc(O)c(O)c(O)c1)*; Dap = NC[C@H](N)C(=O)O

Holding throughout (parameters): species or system human
Assay [1] concerns UEA-1 binding sites on Caco-2 cell membrane preparations. In words: Single tier competition assay: inhibition of biotinylated UEA-1 binding, compound and biotinylated UEA-1 incubated together. The conditions noted are these: for Avg % Inhibtion / Av % Inhibition: Single Tier Assay; for Avg % Inhibtion: library MSI 26; for Av % Inhibition: library MSI 22. In a few lines: (§1)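 Plates coated with Caco-2 membrane preparation (10 μg/ml, carbonate buffer pH 9.6) and BSA-blocked. Single tier: compound and biotinylated UEA-1 incubated together overnight. Two tier: compound incubated overnight with membranes first, biotinylated UEA-1 added next. Bound UEA-1 detected by streptavidin-HRP/OPD, OD490.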

Assay [2] shares this test system. In words: Two tier competition assay: compound incubated alone with membranes, biotinylated UEA-1 added in next step. The conditions noted are these: for Avg % Inhibition / Av % Inhibition: Two Tier Assay; for Avg % Inhibition: library MSI 26; for Av % Inhibition: library MSI 22. In a few lines:
as §1

Assay [3] has the same test system. In words: Competition assay of biotinylated UEA-1 binding, tier (single/two) not given. The conditions noted are these: tier not printed, library TPI 1066. As to the method:
The epithelial cell binding ability of compounds and mixtures obtained from synthetic combinatorial libraries was determined by competition assays. These assays were set up to measure the inhibition of binding of biotinylated UEA-1 to membrane preparations of the epithelial cell line Caco-2 (colon carcinoma cells-2), by compounds and mixtures of the combinatorial libraries. This cell line is a conventional model for epithelial cells.
Two competition inhibition assays were used in this case, namely single tier and two tier assays. These assays differed from each other in that in the single tier assay, the mixtures/compounds and the biotinylated UEA-1 were incubated together with the Caco-2 cell membrane preparations, while in case of the two-tier assay, the mixture/compounds were allowed to incubate alone with the cell membranes in the absence of biotinylated UEA-1, which was added in the next step. Addition of the extra step in the two-tier assay was to ensure that the compounds inhibiting the binding of biotinylated UEA-1 to the Caco-2 cell membranes were doing so by themselves binding to surface receptors on the Caco-2 cells and not to the biotinylated UEA-1. Each assay will be described in detail.
• 1. Confluent Caco-2 cell monolayers (grown in 75 cm^2 flasks for up to 1 week at 37° C. and 5% CO2) were washed twice in Dulbecco's PBS (DPBS). • 2. Cell monolayers were treated with 10 mM EDTA-DPBS for 5–10 min at 37° C. and cells were harvested by centrifugation at 1000 rpm for 5 min. • 3. Cells were washed 3 times in DPBS. • 4. […] The cells were homogenised for 30 sec. • 6. The homogenates were centrifuged in hard walled tubes at 40,000 rpm for 45 min at 4° C. • 7. […] The supernatant was removed and stored on ice. The procedure was repeated adding the second supernatant to the first. • 8. The protein concentration was determined using e.g. a Bio-Rad protein assay. • 9. All fractions were stored at −80° C. prior to use. Single Tier Assays: • 1. 96-well microtiter plates were coated with membrane preparations of Caco-2 cells either by allowing them to incubate on the plates for 2½ hours at room temperature or by incubating them overnight at 4° C. 100 μl of 10 μg/ml (in 0.05 M carbonate buffer, pH 9.6) of membrane preparation was added to each well. • 2. The plates were flicked out, patted dry and blocked with bovine serum albumin (BSA)/DPBS (200 μl/well) for 1 to 4 hours at room temperature after which they were washed three times in water. • 3. […] Control wells were also set up in which the Caco-2 cell membrane preparations were incubated with unconjugated UEA-1. […] Following overnight incubation the plates were washed thoroughly (3–6 times). The plates were flicked out, patted dry and biotinylated UEA-1 was detected with commercial Streptavidin conjugated to horseradish peroxidase (HRP) (CalBiochem). […] The plates were left to incubate for an hour at room temperature. • 6. The plates were then washed 3–6 times and the biotin-streptavidin binding was detected by adding an HRP substrate OPD (orthophenyl diamine) to each well. 100 μl/well of this substrate at a final concentration of 1.6 mg/ml was added to each well. Before adding to the wells, this substrate was activated by addition of 50 μl of 3% H2O2 per plate and the reaction was allowed to develop in the dark. • 7. The reaction was stopped by adding 50 μl of 4 N H2SO4 to each well after approximately 5–10 minutes or when sufficient colour had developed. The OD490 (absorbance at 490 nm) of each well was measured using a conventional 96 well plate reading spectrophotometer. Two Tier Assays: • 1. 96 well plates were coated with Caco-2 cell membrane preparations in the same manner as described in the single tier assay. • 2. […] 100 μl at these final concentrations were added to each well. • 4. The plates were then left to incubate overnight, a step that would allow the mixtures and compounds to interact with the Caco-2 cell membranes without the presence of the competitor (biotinylated UEA-1) itself. • 5. […]

Setting [4] is: library MSI 27, read-out: Single Tier Assay IC50.
Setting [5] is: library MSI 27, read-out: Two Tier Assay IC50.
Where [6] appears, read: 50 μg/ml, first pair of columns.
The mark [7] stands for this setting: 50 μg/ml, second pair of columns.
Setting [8] is: 250 μg/ml, first pair of columns.
The mark [9] stands for this setting: 250 μg/ml, second pair of columns.
The mark [10] stands for this setting: Table 8, galloyl constructs, read-out: IC 50 (uM) 1st tier (converted).
Where [11] appears, read: Table 8, galloyl constructs, read-out: IC 50 (uM) 2nd tier.

For the compound `COc1cc(C(=O)O)cc(OC)c1O` [compound 25, Syringic acid], the IC50 in assay [1] (setting [4]) and in assay [2] (setting [5]) was 307 µM in each case. For the same compound, the “Av % Inhibition” value in assay [3] (setting [6]) was −173%; in assay [3] (setting [7]), 65%; in assay [3] (setting [8]), 66%; in assay [3] (setting [9]) it was 63%.
With `CCOC(=O)c1c(OC)cc(C(=O)O)cc1OC` [compound 5, 4-ethoxycarbonyl-3,5-dimethoxybenzoic acid], the “Single Tier Assay IC50” value in assay [1] (library MSI 27) is 168.10 µg/mL. Moreover, the IC50 in assay [1] (setting [4]) is 333 µM; in assay [2] (setting [5]) it was 259 µM. In addition, the “Two Tier Assay IC50” value in assay [2] (library MSI 27) came to 130.70 µg/mL. The “Av % Inhibition” value stood at 16% in assay [3] (setting [6]), 39% in assay [3] (setting [7]), 54% in assay [3] (setting [8]) and 51% in assay [3] (setting [9]).
As to `COc1ccc(C(=O)O)cc1OC` [compound 10, 3,4-Dimethoxybenzoic acid], the IC50 in assay [1] (setting [4]) worked out at 711 µM; in assay [2] (setting [5]), 356 µM. Moreover, the “Two Tier Assay IC50” value in assay [2] (library MSI 27) amounted to 125.00 µg/mL. Besides, the “Av % Inhibition” value in assay [3] (setting [6]) was −65%; in assay [3] (setting [7]) it was 24%; in assay [3] (setting [8]), 41%; in assay [3] (setting [9]) it was 66%.
As for `CC(=O)N[C@H](CCCCNC(=O)c1cc(O)c(O)c(O)c1)C(=O)N[C@H](CCCCNC(=O)c1cc(O)c(O)c(O)c1)C(=O)N[C@H](CCCCNC(=O)c1cc(O)c(O)c(O)c1)C(=O)N[C@H](CCCCNC(=O)c1cc(O)c(O)c(O)c1)C(=O)N[C@H](CCCCNC(=O)c1cc(O)c(O)c(O)c1)C(=O)N[C@H](CCCCNC(=O)c1cc(O)c(O)c(O)c1)C(=O)N[C@H](CCCCNC(=O)c1cc(O)c(O)c(O)c1)C(N)=O` [MSI 30 #14] (Ac-[dK](Galloyl)[dK](Galloyl)[dK](Galloyl)[dK](Galloyl)[dK](Galloyl)[dK](Galloyl)[dK](Galloyl)-NH2), the “IC 50 (ug/ml) 1st tier” value in assay [1] (Table 8, galloyl constructs) is 17 µg/mL (≈ 8.41 µM). The IC50 in assay [1] (setting [10]) is 8 µM; in assay [2] (setting [11]), 4 µM. Moreover, the “IC 50 (ug/ml) 2nd tier” value in assay [2] (Table 8, galloyl constructs) amounted to 9 µg/mL (≈ 4.45 µM).
For `NC(=O)C(Cc1ccc(NC(=O)c2cc(O)c(O)c(O)c2)cc1)NC(=O)C(Cc1ccc(NC(=O)c2cc(O)c(O)c(O)c2)cc1)NC(=O)C(Cc1ccc(NC(=O)c2cc(O)c(O)c(O)c2)cc1)NC(=O)c1cc(O)c(O)c(O)c1` (stereo not shown) [MSI 34 #20], in that order: 2 µg/mL (≈ 1.8 µM), 2 µM, 5 µM and 6 µg/mL (≈ 5.4 µM).
Turning to `O=C(O[C@@H]1Cc2c(O)cc(O)cc2O[C@H]1c1cc(O)c(O)c(O)c1)c1cc(O)c(O)c(O)c1` [Gallocatechin gallate, reference compound], the “Avg % Inhibtion” value in assay [1] (62.5 μg/ml) is reported as 54.6%; in assay [1] (250 μg/ml), 33.6%. Further, the “Avg % Inhibition” value in assay [2] (62.5 μg/ml) was 7%; in assay [2] (250 μg/ml), 14.1%.
With `NC(=O)C(CCCCNC(=O)C(CCCCNC(=O)C(CCCCNC(=O)c1cc(O)c(O)c(O)c1)NC(=O)c1cc(O)c(O)c(O)c1)NC(=O)C(CCCCNC(=O)c1cc(O)c(O)c(O)c1)NC(=O)c1cc(O)c(O)c(O)c1)NC(=O)C(CCCCNC(=O)C(CCCCNC(=O)c1cc(O)c(O)c(O)c1)NC(=O)c1cc(O)c(O)c(O)c1)NC(=O)C(CCCCNC(=O)c1cc(O)c(O)c(O)c1)NC(=O)c1cc(O)c(O)c(O)c1` (stereo not shown) [MSI 30 #17], in assay [1] (Table 8, galloyl constructs), the “IC 50 (ug/ml) 1st tier” value is on record as 1st tier = 52nd tier = 5 ug/ml. The IC50 in assay [1] (setting [10]) and in assay [2] (setting [11]) was 2 µM throughout. For the same compound, in assay [2] (Table 8, galloyl constructs), the “IC 50 (ug/ml) 2nd tier” value is given as 1st tier = 52nd tier = 5 ug/ml.
As for `CCOc1ccc(C[C@H](CNC)N(C)C[C@H](CC2CCCCC2)NC(=O)c2cc(OC)c(OC)c(OC)c2)cc1`, the “Av % Inhibition” value in assay [1] (62.5 μg/ml) is listed as −9%; in assay [1] (250 μg/ml), −55.7%; in assay [2] (62.5 μg/ml) it was 49.8%; in assay [2] (250 μg/ml), 43.8%.
Take `CC(=O)N[C@@H](CNC(=O)c1cc(O)c(O)c(O)c1)C(=O)N[C@@H](CNC(=O)c1cc(O)c(O)c(O)c1)C(=O)N[C@@H](CNC(=O)c1cc(O)c(O)c(O)c1)C(=O)N[C@@H](CNC(=O)c1cc(O)c(O)c(O)c1)C(N)=O` [MSI 34 #21] (Ac-[Dap](Galloyl)[Dap](Galloyl)[Dap](Galloyl)[Dap](Galloyl)-NH2): the “IC 50 (ug/ml) 1st tier” value in assay [1] (Table 8, galloyl constructs) is 2 µg/mL (≈ 1.98 µM). The IC50 in assay [1] (setting [10]) is 2 µM; in assay [2] (setting [11]) it was 1 µM. In assay [2] (Table 8, galloyl constructs), the “IC 50 (ug/ml) 2nd tier” value was 1 µg/mL (≈ 0.988 µM).
In the case of `COc1cc(C(=O)NCCCCC(NC(=O)C(CCCCNC(=O)c2cc(OC)c(OC)c(OC)c2)NC(=O)C(CCCCNC(=O)c2cc(OC)c(OC)c(OC)c2)NC(C)=O)C(N)=O)cc(OC)c1OC` (stereo not shown) [Cpd 52], the “Single Tier Assay IC50” value in assay [1] (library MSI 27) worked out at 174.80 µg/mL. Moreover, the values for the IC50 in assay [1] (setting [4]) and in assay [2] (setting [5]) were 170 µM and 221 µM, respectively. The “Two Tier Assay IC50” value in assay [2] (library MSI 27) is 226.70 µg/mL.
On to `CCOc1cc(C(=O)NCCCCC(NC(=O)c2cc(OCC)c(OCC)c(OCC)c2)C(N)=O)cc(OCC)c1OCC` (stereo not shown) [Cpd 3], for which the IC50 in assay [1] (setting [4]) and in assay [2] (setting [5]) was 405 µM throughout.
`COc1ccc(C(=O)NCCCCC(NC(=O)C(CCCCNC(=O)c2ccc(OC)c(OC)c2)NC(C)=O)C(N)=O)cc1OC` (stereo not shown) [Cpd 34]: the “Single Tier Assay IC50” value in assay [1] (library MSI 27) amounted to 121.40 µg/mL. For the same compound, the IC50 was 189 µM in assay [1] (setting [4]) and 135 µM in assay [2] (setting [5]). The “Two Tier Assay IC50” value in assay [2] (library MSI 27) is 87.01 µg/mL.
In the case of `CCC[C@H](CNC)N(C)C[C@H](NC(=O)c1cc(O)c(O)c(O)c1)C(C)C` [D-Nve, D-Val, Gallic Acid], the “Av % Inhibition” value is recorded as 13.7% in assay [1] (62.5 μg/ml), 46% in assay [1] (250 μg/ml), 12.1% in assay [2] (62.5 μg/ml) and 29.8% in assay [2] (250 μg/ml).
Regarding `CCOc1cc(C(=O)NCCCCC(NC(=O)C(CCCCNC(=O)c2cc(OCC)c(OCC)c(OCC)c2)NC(=O)C(CCCCNC(=O)c2cc(OCC)c(OCC)c(OCC)c2)NC(C)=O)C(N)=O)cc(OCC)c1OCC` (stereo not shown) [Cpd 51], the IC50 in assay [1] (setting [4]) and in assay [2] (setting [5]) was 217 µM throughout.
For `NC(=O)c1cc(O)c(O)c(O)c1` [3,4,5-trihydroxybenzamide, reference compound], the “Avg % Inhibtion” value in assay [1] (62.5 μg/ml) came to 41.7%; in assay [1] (250 μg/ml) it was 21%. For the same compound, the “Avg % Inhibition” value amounted to 10.7% in assay [2] (62.5 μg/ml) and 41.4% in assay [2] (250 μg/ml).
Consider `CCOc1cc(C(=O)NCCCCC(NC(=O)C(CCCCNC(=O)c2cc(OCC)c(OCC)c(OCC)c2)NC(=O)c2cc(OCC)c(OCC)c(OCC)c2)C(N)=O)cc(OCC)c1OCC` (stereo not shown) [Cpd 27], for which the IC50 in assay [1] (setting [4]) and in assay [2] (setting [5]) was 255 µM each time.
